Tests used:
[1] = Pharmacokinetics of noribogaine in healthy male volunteers (plasma, urine, LCMSMS); conditions: for AUC0-216 / AUC0-∞ / Cmax / Tmax / t1/2: mean (SD), n = 6
[2] = system: Sprague-Dawley rat; test: Single dose toxicity in rats; format: in vivo
Method: The objective of this study was to determine the toxicity and toxicokinetic profile of noribogaine HCl following a single oral (gavage) administration in the Sprague-Dawley rat. A single dose of 100, 300 and 800 mg/kg (achieved with doses of 400 mg/kg 3 h+/−30 min apart because of the limitations of maximum dose formulation concentration). Five male rats/group were used. […] Hypoactivity, vocalization, chewing movements, changes in respiration/posture, salivation, stimuli sensitivity, tremors, twitches and penile erection occurred prior to death. […] The NOAEL was determined to be 100 mg/kg.

[3] = system: dogs; test: Fourteen day repeat dose toxicity in dogs; format: in vivo, dog
Method: The objective of this study was to determine the toxicity profile of noribogaine HCl given following oral (gavage) administration to dogs for 14 days according to the following Table 3 below:
Noribogaine HCl was administered to groups of 4 male and 4 female dogs by single oral gavage daily for 14 days at doses of 0, 0.5, 1.0 and 5.0 mg/kg/day. An additional group of 4 male and 4 female dogs received either the vehicle control or 5.0 mg/kg/day for 14 days and were held for an additional 28 days after cessation of dosing to assess recovery from any potential drug-induced changes. The study was conducted under GLP guidelines and included comprehensive examinations of clinical signs, body weight, clinical pathology parameters, ophthalmologic examinations, ECG recordings and analyses of plasma for bioanalytical measurement of drug levels at appropriate intervals during the study. At the termination of the dosing phase and at the termination of the recovery phase, all dogs were subjected to a complete post-mortem examination including gross examination of major organs and histologic examination of an extensive list of tissues. Additional sections of brain were obtained from cerebrum, cerebellus, brain stem and spinal cord and examined histologically to evaluate potential effects on brain histopathology. In addition, these sections were examined with immunohistochemical stains for GFAP for evidence of gliosis and Calbindin for a more comprehensive examination of cerebellar Purkinje cells.

[4] = Human pharmacokinetic study, single oral tablet, fasting healthy volunteers (serum); format: in vivo; conditions: 3 mg, 10 mg, 30 mg or 60 mg single oral tablet
Method: In double blind studies, fasting healthy volunteers (6 per cohort) were treated once orally with a tablet of noribogaine HCl. In escalating cohorts, the volunteers received 3 mg, 10 mg, 30 mg or 60 mg noribogaine.

[5] = system: Sprague-Dawley rats; test: Fourteen day repeat dose toxicity in rats; format: in vivo, rat
Method: This study was conducted to evaluate the toxicity profile of noribogaine-HCl following oral (gavage) administration to the rat for 14 days following Table 2 below:
Male and female Sprague-Dawley rats, 10/sex/group, were administered 0, 25, 50 or 100 mg/kg noribogaine HCl daily by single oral gavage for 14 days. An additional 5 rats/sex/group in the 0 (control) and 100 mg/kg groups were retained for a 28 day recovery period during which no drug was administered. Six rats/sex/group (3 rats/sex controls) were similarly dosed and sampled on study days 1 and 14 for analysis of noribogaine-HCl concentrations in the blood.

[6] = glucuronide in plasma after 30 mg noribogaine
[7] = glucuronide in plasma after 60 mg noribogaine

CC[C@H]1C[C@@H]2C[C@H]3c4[nH]c5ccc(OC6OC(C(=O)O)C(O)C(O)C6O)cc5c4CCN(C2)[C@@H]13 (stereo partly drawn) [Noribogaine glucuronide, noribogaine glucuronide]
time by which noribogaine glucuronide was detected in all subjects ([1]; 30 mg and 60 mg noribogaine dose groups, plasma): ≤ 0.75 h | proportion of noribogaine glucuronide Cmax and AUC relative to noribogaine ([1]; both dose groups (30 mg, 60 mg)): 3-4% | AUC0-216 [1, 6]: 25.7 (9.1) ng · hr/ml | AUC0-∞ [1, 6]: 25.8 (9.3) ng · hr/ml | Cmax [1, 6]: 1.8 (0.6) ng/ml | Tmax [1, 6]: 3.0 (0.6) hr | t1/2 [1, 6]: 20.6 (4.9) hr | AUC0-216 [1, 7]: 65.0 (21.5) ng · hr/ml | AUC0-∞ [1, 7]: 67.1 (21.9) ng · hr/ml | Cmax [1, 7]: 4.1 (1.2) ng/ml | Tmax [1, 7]: 3.8 (1.2) hr | t1/2 [1, 7]: 23.1 (3.0) hr | time of peak concentrations after noribogaine dosing ([1]; glucuronide, 30 mg and 60 mg dose groups, plasma): 3 to 4 h | mean half-life ([1]; plasma noribogaine glucuronide, 30 mg and 60 mg dose groups): 21 to 23 h

CC[C@@H]1C[C@H]2CC3c4[nH]c5ccc(O)cc5c4CCN(C2)C31.Cl [noribogaine HCl]
clinical signs ([2]; 100 mg/kg single oral): did not show any treatment related signs | clinical signs ([2]; 300 mg/kg single oral, persisted until Day 2 in 3/5 rats): Hypoactivity, vocalization, salivation, stimuli sensitivity, loss of limb function and lying on the cage floor | mortality ([2]; 800 mg/kg oral gavage (2 x 400 mg/kg 3 h apart), male rats): Mortality occurred in all male rats | NOAEL ([2]; single oral dose, male rats): 100 mg/kg | lacrimal gland changes (target tissue) ([3]; 5 mg/kg/day for 14 days): slight to moderate atrophy and degeneration of the acinar cells | lacrimal gland change after recovery ([3]; 5 mg/kg/day, 28 days off drug): clear evidence of regeneration of this lacrimal gland change | clinical observations, body weights, clinical pathology, ophthalmology, ECG, gross lesions ([3]; 0.5, 1.0 and 5.0 mg/kg/day oral for 14 days, dosing or recovery phase): No evidence of adverse effect | NOAEL ([3]; 14 days oral, based on lacrimal gland changes): 1 mg/kg/day | adverse effects in the trial [4]: no clinically relevant adverse effects | body weight change ([5]; 100 mg/kg, females): −2.6% | body weight change ([5]; 100 mg/kg, males): −5.5% | food consumption change ([5]; 100 mg/kg, males and females): −4.7% | effects on mortality, clinical signs, ophthalmoscopy, hematology, coagulation, clinical chemistry, urinalysis, gross necropsy, histopathology ([5]; 25, 50 or 100 mg/kg daily oral gavage for 14 days): no test article-related effects | brain sections stained for GFAP or Calbindin ([5]; 14 days): No treatment-related differences in the brain | NOAEL ([5]; 14 days oral, highest dose tested): 100 mg/kg | liver weight ([5]; mid- and high dose groups, considered incidental): Minor increases in liver weight
